The text below walks through data of PubChem BioAssay AID330 (DTP/NCI, 2004).

The assay concerns P388 leukemia ip, CD2F1 mice, survival T/C. Description: NCI In Vivo Anticancer Drug Screen. Data for tumor model P388 Leukemia (intraperitoneal) in CD2F1 (CDF1) mice. The following applies: endpoint: median survival time, higher = longer survival. In a few lines: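 Mice carrying the transplanted tumor received test compound or vehicle. Survival was recorded in each group, and the value is the treated-group measurement divided by that of the vehicle-treated control group.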

The mark [1] stands for this setting: dose: 50.0 mg/kg/injection, schedule: Q01DX009 (ip), vehicle: Klucel (hydroxypropylcellulose) (HPC).
The mark [2] stands for this setting: dose: 100.0 mg/kg/injection, schedule: Q01DX009 (ip), vehicle: Klucel (hydroxypropylcellulose) (HPC).
Setting [3] is: dose: 200.0 mg/kg/injection, schedule: Q01DX009 (ip), vehicle: Klucel (hydroxypropylcellulose) (HPC).
Setting [4] is: dose: 60.0 mg/kg/injection, schedule: Q01DX005 (ip), vehicle: Klucel (hydroxypropylcellulose) (HPC).
The mark [5] stands for this setting: dose: 60.0 mg/kg/injection, schedule: Q01DX005 (ip), vehicle: saline with Tween-80.
The mark [6] stands for this setting: dose: 120.0 mg/kg/injection, schedule: Q01DX005 (ip), vehicle: saline with Tween-80.
Setting [7] is: dose: 240.0 mg/kg/injection, schedule: Q01DX005 (ip), vehicle: saline with Tween-80.

Structures are written as SMILES. “And” between values parts separate entries of the source, which are not always exact repeats. Equal entries are not always repeated. Toxic doses and inconclusive results are not listed.

In the case of `CC(C)C1=CC23CCC4C(C)(C(=O)O)CCCC4(C)C2CC1C(C(=O)O)C3C(=O)O` (stereo not given), the T/C was 97 % of control (dose: 50.0 mg/kg/injection, schedule: Q01DX005 (ip), vehicle: saline); 96 % of control (dose: 100.0 mg/kg/injection, schedule: Q01DX005 (ip), vehicle: saline); 98 % of control (dose: 200.0 mg/kg/injection, schedule: Q01DX005 (ip), vehicle: saline).

As for `Cn1c2ccccc2c(=O)c2ccc(Cl)cc21`, the T/C runs as follows: (dose: 25.0 mg/kg/injection, schedule: Q01DX009 (ip), vehicle: Klucel (hydroxypropylcellulose) (HPC)) 117 % of control; under setting [1], 111 % of control; under setting [2], 114 % of control; under setting [3], 88 % of control; (dose: 400.0 mg/kg/injection, schedule: Q01DX009 (ip), vehicle: Klucel (hydroxypropylcellulose) (HPC)) 104 % of control.

Take `COc1c(O)cc2c(c1O)C1OC(CO)C(O)C(O)C1OC2=O` (stereo not given): the T/C (dose: 12.75 mg/kg/injection, schedule: Q01DX005 (ip), vehicle: Klucel (hydroxypropylcellulose) (HPC)) is 100 % of control; the T/C (dose: 25.5 mg/kg/injection, schedule: Q01DX005 (ip), vehicle: Klucel (hydroxypropylcellulose) (HPC)) is 98 % of control; the T/C (dose: 51.0 mg/kg/injection, schedule: Q01DX005 (ip), vehicle: Klucel (hydroxypropylcellulose) (HPC)) is 97 % of control; the T/C (dose: 102.0 mg/kg/injection, schedule: Q01DX005 (ip), vehicle: Klucel (hydroxypropylcellulose) (HPC)) is 100 % of control.

Turning to `COC(OC)C1(C)NC(=O)NC1=O` (stereo not given), the T/C runs as follows: under setting [1], 102 % of control; under setting [2], 103 % of control; (dose: 100.0 mg/kg/injection, schedule: Q04DX003 (ip), vehicle: Klucel (hydroxypropylcellulose) (HPC)) 95 % of control; under setting [3], 93 % of control; (dose: 200.0 mg/kg/injection, schedule: Q04DX003 (ip), vehicle: Klucel (hydroxypropylcellulose) (HPC)) 98 % of control; (dose: 400.0 mg/kg/injection, schedule: Q04DX003 (ip), vehicle: Klucel (hydroxypropylcellulose) (HPC)) 100 % of control.

Consider `COc1cc(C2c3cc4c(cc3OC3(O)C=C(C)OC(=O)C23)OCO4)cc(OC)c1OC` (stereo not given), for which the T/C is, setting by setting: under setting [4], 94 % of control; (dose: 120.0 mg/kg/injection, schedule: Q01DX005 (ip), vehicle: Klucel (hydroxypropylcellulose) (HPC)) 94 % of control; (dose: 240.0 mg/kg/injection, schedule: Q01DX005 (ip), vehicle: Klucel (hydroxypropylcellulose) (HPC)) 110 % of control.

Regarding `[N-]=[N+]=NC(c1ccccc1)n1nnnc1-c1ccccc1` (stereo not given), the T/C reads like this: (dose: 100.0 mg/kg/injection, schedule: Q01DX001 (ip), vehicle: Klucel (hydroxypropylcellulose) (HPC)) 101 % of control and 88 % of control; (dose: 200.0 mg/kg/injection, schedule: Q01DX001 (ip), vehicle: Klucel (hydroxypropylcellulose) (HPC)) 102 % of control and 95 % of control; (dose: 400.0 mg/kg/injection, schedule: Q01DX001 (ip), vehicle: Klucel (hydroxypropylcellulose) (HPC)) 98 % of control and 120 % of control.

In the case of `CCOP(=O)(OCC)SCSC(C)C`, the T/C (dose: 0.04 mg/kg/injection, schedule: Q01DX009 (ip), vehicle: Klucel (hydroxypropylcellulose) (HPC)) was 102 % of control; the T/C (dose: 0.09 mg/kg/injection, schedule: Q01DX009 (ip), vehicle: Klucel (hydroxypropylcellulose) (HPC)) was 102 % of control; the T/C (dose: 0.19 mg/kg/injection, schedule: Q01DX009 (ip), vehicle: Klucel (hydroxypropylcellulose) (HPC)) was 108 % of control.

In the case of `C/C(=N\Oc1ncc([N+](=O)[O-])c(O/N=C(\C)c2ccccc2)n1)c1ccccc1`, the T/C reads like this: under setting [5], 100 % of control; under setting [6], 88 % of control; under setting [7], 91 % of control.

Regarding `N#Cc1nccnc1Cl`, the T/C by setting is: (dose: 25.0 mg/kg/injection, schedule: Q01DX009 (ip), vehicle: other) 95 % of control; (dose: 25.0 mg/kg/injection, schedule: Q04DX003 (ip), vehicle: other) 100 % of control; (dose: 50.0 mg/kg/injection, schedule: Q01DX009 (ip), vehicle: other) 100 % of control; (dose: 50.0 mg/kg/injection, schedule: Q04DX003 (ip), vehicle: other) 100 % of control; (dose: 100.0 mg/kg/injection, schedule: Q01DX009 (ip), vehicle: other) 100 % of control; (dose: 100.0 mg/kg/injection, schedule: Q04DX003 (ip), vehicle: other) 100 % of control.

As to `O=C1C=CC(=O)[C@H]2CC=C3OC4OC5(CCCCC5)OC4[C@H]3[C@@H]12` (stereo not given in full), the T/C was 94 % of control under setting [6] and 97 % of control under setting [7].

On to `Nc1nnc(/C=C/c2ccc(Cl)cc2)o1`, for which the T/C was 98 % of control under setting [5], 105 % of control under setting [6] and 106 % of control under setting [7].

Consider `N#CC1CC(c2ccc([N+](=O)[O-])cc2)N(c2ccccc2)O1` (stereo not given), for which the T/C reads like this: (dose: 100.0 mg/kg/injection, schedule: Q01DX001 (ip), vehicle: saline with Tween-80) 95 % of control; (dose: 100.0 mg/kg/injection, schedule: Q04DX002 (ip), vehicle: saline with Tween-80) 100 % of control and 104 % of control; (dose: 200.0 mg/kg/injection, schedule: Q01DX001 (ip), vehicle: saline with Tween-80) 94 % of control; (dose: 200.0 mg/kg/injection, schedule: Q04DX002 (ip), vehicle: saline with Tween-80) 95 % of control and 88 % of control; (dose: 400.0 mg/kg/injection, schedule: Q01DX001 (ip), vehicle: saline with Tween-80) 92 % of control; (dose: 400.0 mg/kg/injection, schedule: Q04DX002 (ip), vehicle: saline with Tween-80) 98 % of control and 90 % of control.

Turning to `C=C(C)C(=O)NC(N)=NC#N`, under setting [4], the T/C is 122 % of control.

Take `CC(C)=NNC(=O)CNc1cccc(C(F)(F)F)c1`: the T/C by setting is: under setting [5], 97 % of control; under setting [6], 100 % of control; under setting [7], 106 % of control.

With `COC(=O)C(=O)C1CCc2c(C(=O)OC)nc3nnc(N)n3c21` (stereo not given), the T/C reads like this: under setting [5], 94 % of control; under setting [6], 99 % of control; under setting [7], 87 % of control.

Take `CCOC(=O)C1(NC(=O)Nc2ccccc2)CCCCC1`: the T/C runs as follows: (dose: 50.0 mg/kg/injection, schedule: Q01DX005 (ip), vehicle: Klucel (hydroxypropylcellulose) (HPC)) 100 % of control; (dose: 100.0 mg/kg/injection, schedule: Q01DX005 (ip), vehicle: Klucel (hydroxypropylcellulose) (HPC)) 98 % of control; (dose: 200.0 mg/kg/injection, schedule: Q01DX005 (ip), vehicle: Klucel (hydroxypropylcellulose) (HPC)) 104 % of control.

Take `CCOc1cc(C=Nc2cc(Cl)c(O)c(Cl)c2)ccc1N(CCCl)CCCl`: the T/C was 122 % of control (dose: 3.13 mg/kg/injection, schedule: Q04DX003 (ip), vehicle: saline with Tween-80); 218 % of control (dose: 12.5 mg/kg/injection, schedule: Q01DX009 (ip), vehicle: saline with Tween-80); 168 % of control (dose: 12.5 mg/kg/injection, schedule: Q04DX003 (ip), vehicle: saline with Tween-80); 171 % of control (dose: 16.5 mg/kg/injection, schedule: Q04DX003 (ip), vehicle: saline with Tween-80); 150 % of control (dose: 25.0 mg/kg/injection, schedule: Q01DX009 (ip), vehicle: saline with Tween-80); 185 % of control and 200 % of control (dose: 25.0 mg/kg/injection, schedule: Q04DX003 (ip), vehicle: saline with Tween-80). Besides, the T/C (dose: 37.5 mg/kg/injection, schedule: Q04DX003 (ip), vehicle: saline with Tween-80) was 204 % of control and the T/C (dose: 50.0 mg/kg/injection, schedule: Q04DX003 (ip), vehicle: saline with Tween-80) is 90 % of control.
